Experimental data: patent publication US5221665A, “N-substituted amides” (Boehringer Ingelheim Pharmaceuticals, Inc., priority 1991, dated 1993)
In brackets after ≈: the same amount, converted by molar mass.

Experiments:
[1] = target: T1, Human sputum elastase (HSE) / Human Leukocyte Elastase (HLE) (Homo sapiens, UniProt P08246); assay: Elastase Inhibition--In Vitro Method (hydrolysis of MeO-Suc-Ala-Ala-Pro-Val-pNA, microtiter format); type: biochemical; details: for % inhib. (5 ug/mL) 0% HSA / % inhib. (5 ug/mL) 0.5% HSA: 5 ug/mL compound; for % inhib. (5 ug/mL) 0.5% HSA: 0.5% HSA added; for IC50: Table I, 0.5 mM substrate, 15 minutes pre-incubation
T1 construct: Human sputum elastase (HSE ) (Elasten Products Co., Pacific, Mo.); purchased Elasten Products Co., Pacific, Mo; host or cells: human sputum
T1 sequence (P08246 30-267): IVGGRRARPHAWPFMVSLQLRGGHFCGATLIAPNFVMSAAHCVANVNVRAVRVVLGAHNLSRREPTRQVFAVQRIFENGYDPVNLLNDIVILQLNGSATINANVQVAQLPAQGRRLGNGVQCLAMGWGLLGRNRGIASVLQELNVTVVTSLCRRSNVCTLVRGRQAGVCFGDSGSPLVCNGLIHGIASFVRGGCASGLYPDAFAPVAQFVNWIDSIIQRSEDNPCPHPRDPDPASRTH

[2] = target: T2, human neutrophil elastase (HNE) (Homo sapiens, UniProt P08246); assay: Elastase Inhibition--Animal Model (acute hamster hemorrhage model, HNE instilled i.t.); type: in vivo, Syrian Golden Hamsters; details: compound 20 ug i.t. three to five minutes before 50 μg HNE i.t., lung lavage hemorrhage at 18 hours
T2 construct: purified preparations of human neutrophil elastase (HNE); purchased Elastin Products Co., Pacific, MO
T2 sequence (P08246 30-247 limits assumed): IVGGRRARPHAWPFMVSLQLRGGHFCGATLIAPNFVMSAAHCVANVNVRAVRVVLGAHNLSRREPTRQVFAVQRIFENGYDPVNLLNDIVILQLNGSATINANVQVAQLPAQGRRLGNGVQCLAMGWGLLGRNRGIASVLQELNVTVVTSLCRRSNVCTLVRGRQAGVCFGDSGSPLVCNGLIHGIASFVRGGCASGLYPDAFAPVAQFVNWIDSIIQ
Experimental: When instilled into the lungs of hamsters, purified preparations of human neutrophil elastase (HNE) will produce an emphysema like state. Acute challenge (18 hours) with 50 μg of HNE results in pulmonary hemorrhage which can be readily quantitated by measuring total RBC's (red blood count) and hemogloblin concentration of lung lavage samples.
HNE (obtained from Elastin Products Co., Pacific, MO) was diluted to 250 μg/mL in 0.9% sterile saline. Syrian Golden Hamsters, males, weighing approximately 90-130 grams, were obtained from Charles River Laboratories. The experiments described below are conducted using at least three animals per group.
Anesthesia required for the intratracheal administration of compounds and elastase was induced by the i.p. injection of Ketamine hydrochloride, 10 mg/100 gram body weight plus Xylazine, 1 mg/100 gram body weight.
Hamsters were anesthetized as described above and the trachea were surgically exposed. Test compounds were administered via 27g needle inserted directly into the trachea in 0.1 mL volume followed by 0.1 mL saline push. […]
Samples were concentrated by centrifugation (1500 rpm, 10 minutes) and brought up to 1.0 mL in saline. Homoglobin concentration was determined spectrophotometrically (540 nm) by the cyanmethemoglobin method using 200 μL sample to 2.5 mL cranmethoglobin reagent (Data Medical Associates, Arlington, Tx.).

% inhib. (5 ug/mL) 0% HSA [1]	% inhib. (5 ug/mL) 0.5% HSA [1]	IC50 [1]	% inhib. (20 ug, i.t.) [2]	SMILES
95.1%	87.8%	0.432 µg/mL (≈ 0.693 µM)	–	COc1ccc(CCN(CC(=O)NC(C(=O)C(F)(F)F)C(C)C)C(=O)[C@@H](NC(=O)OCc2ccccc2)C(C)C)cc1OC (some centres unmarked) [3,4-Dimethoxyphenethyl; CBZ]
100%	99.4%	0.082 µg/mL (≈ 0.155 µM)	–	CC(C)C(NC(=O)CN(C(=O)[C@@H](NC(=O)OCc1ccccc1)C(C)C)C1CCCC1)C(=O)C(F)(F)F (some centres unmarked) [Cyclopentyl; CBZ]
99.8%	99.5%	0.045 µg/mL (≈ 0.0607 µM)	93.8%	CC(C)C(NC(=O)CN(C(=O)[C@@H](NC(=O)c1ccc(C(=O)NS(=O)(=O)c2ccc(Cl)cc2)cc1)C(C)C)C1CC2CCC1C2)C(=O)C(F)(F)F (stereo partly drawn) [[[4-(4-Chlorophenyl)sulfonylaminocarbonyl]phenyl-1-oxomethyl]-L-Valyl-N-(exo-bicyclo[2,2,1]hept-2-yl)-glycyl-N-[3-(1,1,1-trifluoro-4-methyl-2-oxypentyl)] amide.]
98.8%	96.3%	0.0838 µg/mL (≈ 0.103 µM)	90.2%	COc1ccc(CCN(CC(=O)NC(C(=O)C(F)(F)F)C(C)C)C(=O)[C@@H](NC(=O)c2ccc(C(=O)NS(=O)(=O)c3ccc(Cl)cc3)cc2)C(C)C)cc1OC (stereo partly drawn) [[[4-(4-Chlorophenylsulfonylaminocarbonyl]phenyl-1-oxomethyl]-L-Valyl-N-2-(3 , 4-dimethoxy)phenethyl] glycyl-N-[3-(1,1,1-trifluoro-4-methyl-2-oxypentyl)] amide]
